Structures are written as SMILES.

One assay has as its target P70S6K (T412E mutant) (Homo sapiens (Human), UniProt P23443, T412E). In words: P70S6K enzyme assay. In kind it is biochemical. Particulars: read-out: IC50 p70S6K. Summed up: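 Phosphorylated product and substrate peptide separated by microfluidic capillary electrophoresis (Caliper LabChip 3000), product peaks resolving before substrate.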
A further assay concerns the target His-AKT (Full Length) (Homo sapiens (Human), UniProt P31749). The experiment in a line: AKT enzyme assay. The class given is biochemical. As to conditions: read-out: IC50 AKT.

His-AKT (Full Length), sequence (P31749 whole entry): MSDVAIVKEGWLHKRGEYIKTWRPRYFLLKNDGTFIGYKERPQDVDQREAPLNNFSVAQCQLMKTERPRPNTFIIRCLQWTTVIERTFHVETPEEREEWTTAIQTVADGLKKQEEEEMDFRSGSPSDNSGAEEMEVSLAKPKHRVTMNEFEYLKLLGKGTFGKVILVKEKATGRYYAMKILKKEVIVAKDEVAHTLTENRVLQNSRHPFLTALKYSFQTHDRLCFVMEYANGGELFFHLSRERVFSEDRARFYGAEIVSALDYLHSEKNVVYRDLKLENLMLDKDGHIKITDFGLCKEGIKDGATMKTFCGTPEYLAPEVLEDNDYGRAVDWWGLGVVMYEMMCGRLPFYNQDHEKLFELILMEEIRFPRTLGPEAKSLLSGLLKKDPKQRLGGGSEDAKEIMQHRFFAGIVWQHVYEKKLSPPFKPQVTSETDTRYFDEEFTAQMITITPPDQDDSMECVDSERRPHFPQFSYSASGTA
P70S6K (T412E mutant), sequence (P23443 whole entry T412E): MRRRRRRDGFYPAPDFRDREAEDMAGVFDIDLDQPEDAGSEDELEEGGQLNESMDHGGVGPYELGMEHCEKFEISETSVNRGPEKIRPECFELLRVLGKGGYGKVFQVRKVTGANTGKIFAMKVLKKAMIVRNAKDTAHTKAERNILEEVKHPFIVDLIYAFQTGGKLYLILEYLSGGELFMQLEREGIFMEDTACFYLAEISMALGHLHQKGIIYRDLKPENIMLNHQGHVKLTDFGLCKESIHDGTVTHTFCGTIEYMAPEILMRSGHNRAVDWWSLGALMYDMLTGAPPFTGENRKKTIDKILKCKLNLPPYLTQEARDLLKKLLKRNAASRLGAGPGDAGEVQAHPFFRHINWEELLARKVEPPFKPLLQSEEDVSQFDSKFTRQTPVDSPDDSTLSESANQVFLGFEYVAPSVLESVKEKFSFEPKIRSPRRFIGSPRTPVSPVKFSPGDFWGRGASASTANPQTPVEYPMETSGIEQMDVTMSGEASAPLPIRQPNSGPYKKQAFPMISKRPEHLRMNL

Usually IC50 stands for the concentration needed to halve the response being measured. Regarding `CN(C)CCN(C)CCn1cc(-c2ccc(F)c(C(F)(F)F)c2)nc1C1CCN(c2ncnc(N)c2C#N)CC1` [Compound 362, 4-Amino-6-{4-[1-{2-[(2-dimethylamino-ethyl)-methyl-amino]-ethyl}-4-(4-fluoro-3-trifluoromethyl-phenyl)-1H-imidazol-2-yl]-piperidin-1-yl}-pyrimidine-5-carbonitrile], the IC50 came out at 4.1 nM on P70S6K (T412E mutant) and 76 nM at His-AKT (Full Length).
For the compound `COCCN(C)CCn1cc(-c2ccc(F)c(C(F)(F)F)c2)nc1C1CCN(c2ncnc(N)c2C#N)CC1` [Compound 363, 4-Amino-6-[4-(4-(4-fluoro-3-trifluoromethyl-phenyl)-1-{2-[(2-methoxy-ethyl)-methyl-amino]-ethyl}-1H-imidazol-2-yl)-piperidin-1-yl]-pyrimidine-5-carbonitrile], the 50% inhibitory concentration (IC50) on P70S6K (T412E mutant) was determined as 3.4 nM; at His-AKT (Full Length), 26 nM.
In the case of `COCCNCCn1cc(-c2ccc(F)c(C(F)(F)F)c2)nc1C1CCN(c2ncnc(N)c2C#N)CC1` [Compound 364, 4-Amino-6-(4-{4-(4-fluoro-3-trifluoromethyl-phenyl)-1-[2-(2-methoxy-ethylamino)-ethyl]-1H-imidazol-2-yl}-piperidin-1-yl)-pyrimidine-5-carbonitrile], the IC50 on P70S6K (T412E mutant) was determined as 1.4 nM; on His-AKT (Full Length) it was 2.5 nM.
For `CN(C)CCN(C)CCn1cc(-c2ccc(F)c(C(F)(F)F)c2)nc1C1CCN(c2ncnc(N)c2C(N)=O)CC1` [Compound 365, 4-Amino-6-{4-[1-{2-[(2-dimethylamino-ethyl)-methyl-amino]-ethyl}-4-(4-fluoro-3-trifluoromethyl-phenyl)-1H-imidazol-2-yl]-piperidin-1-yl}-pyrimidine-5-carboxylic acid amide], the IC50 at P70S6K (T412E mutant) worked out at 6.3 nM; at His-AKT (Full Length) it was 730 nM.
Regarding `COCCN(C)CCn1cc(-c2ccc(F)c(C(F)(F)F)c2)nc1C1CCN(c2ncnc(N)c2C(N)=O)CC1` [Compound 366, 4-Amino-6-[4-(4-(4-fluoro-3-trifluoromethyl-phenyl)-1-{2-[(2-methoxy-ethyl)-methyl-amino]-ethyl}-1H-imidazol-2-yl)-piperidin-1-yl]-pyrimidine-5-carboxylic acid amide], the IC50 was determined as 9.2 nM at P70S6K (T412E mutant) and 440 nM on His-AKT (Full Length).
For `COCCNCCn1cc(-c2ccc(F)c(C(F)(F)F)c2)nc1C1CCN(c2ncnc(N)c2C(N)=O)CC1` [Compound 367, 4-Amino-6-(4-{4-(4-fluoro-3-trifluoromethyl-phenyl)-1-[2-(2-methoxy-ethylamino)-ethyl]-1H-imidazol-2-yl}-piperidin-1-yl)-pyrimidine-5-carboxylic acid amide], the results for the IC50 on P70S6K (T412E mutant) and at His-AKT (Full Length) were 4 nM and 67 nM, respectively.
On to `CN(CCn1cc(-c2ccc(F)c(C(F)(F)F)c2)nc1C1CCN(c2ncnc(N)c2C(N)=O)CC1)Cc1ccccc1` [Compound 368, 4-Amino-6-{4[1-[2-(benzyl-methyl-amino)-ethyl]-4-(4-fluoro-3-trifluoromethyl-phenyl)-1H-imidazol-2-yl]-piperidin-1-yl}-pyrimidine-5-carboxylic acid amide], for which the values for the IC50 at P70S6K (T412E mutant) and on His-AKT (Full Length) were 21 nM and 760 nM, respectively.
In the case of `CC(C)NCCn1cc(-c2ccc(F)c(C(F)(F)F)c2)nc1C1CCN(c2ncnc(N)c2C#N)CC1` [Compound 369, 4-Amino-6-{4-[4-(4-fluoro-3-trifluoromethyl-phenyl)-1-(2-isopropylamino-ethyl)-1H-imidazol-2-yl]-piperidin-1-yl}-pyrimidine-5-carbonitrile], the IC50 on P70S6K (T412E mutant) is 3.6 nM; on His-AKT (Full Length), 5.4 nM.
With `CC(C)NCCn1cc(-c2ccc(F)c(C(F)(F)F)c2)nc1C1CCN(c2ncnc(N)c2C(N)=O)CC1` [Compound 370, 4-Amino-6-{4-[4-(4-fluoro-3-trifluoromethyl-phenyl)-1-(2-isopropylamino-ethyl)-1H-imidazol-2-yl]-piperidin-1-yl}-pyrimidine-5-carboxylic acid amide], the IC50 at P70S6K (T412E mutant) amounted to 0.9 nM; at His-AKT (Full Length), 2.5 nM.
Turning to `COCC(C)NCCn1cc(-c2ccc(F)c(C(F)(F)F)c2)nc1C1CCN(c2ncnc(N)c2C(N)=O)CC1` (stereo not drawn) [Compound 371, 4-Amino-6-(4-{4-(4-fluoro-3-trifluoromethyl-phenyl)-1-[2-(2-methoxy-1-methyl-ethylamino)-ethyl]-1H-imidazol-2-yl}-piperidin-1-yl)-pyrimidine-5-carboxylic acid amide], the IC50 on P70S6K (T412E mutant) is 18 nM; on His-AKT (Full Length), 85 nM.
`CC(C)CNCCn1cc(-c2ccc(F)c(C(F)(F)F)c2)nc1C1CCN(c2ncnc(N)c2C#N)CC1` [Compound 372, 4-Amino-6-{4-[4-(4-fluoro-3-trifluoromethyl-phenyl)-1-(2-isobutylamino-ethyl)-1H-imidazol-2-yl]-piperidin-1-yl}-pyrimidine-5-carbonitrile]: the half-maximal inhibitory concentration (IC50) is 0.2 nM at P70S6K (T412E mutant) and 0.7 nM on His-AKT (Full Length).
The matching figures for `CC(C)CNCCn1cc(-c2ccc(F)c(C(F)(F)F)c2)nc1C1CCN(c2ncnc(N)c2C(N)=O)CC1` [Compound 373, 4-Amino-6-{4-[4-(4-fluoro-3-trifluoromethyl-phenyl)-1-(2-isobutylamino-ethyl)-1H-imidazol-2-yl]-piperidin-1-yl}-pyrimidine-5-carboxylic acid amide]: 2.9 nM and 12 nM.
Take `CNCCn1cc(-c2ccc(F)c(C(F)(F)F)c2)nc1C1CCN(c2ncnc(N)c2C#N)CC1` [Compound 374, 4-Amino-6-{4-[4-(4-fluoro-3-trifluoromethyl-phenyl)-1-(2-methylamino-ethyl)-1H-imidazol-2-yl]-piperidin-1-yl}-pyrimidine-5-carbonitrile]: the IC50 on P70S6K (T412E mutant) was 0.4 nM; on His-AKT (Full Length) it was 1.5 nM.
Turning to `CC(C)(C)NCCn1cc(-c2ccc(F)c(C(F)(F)F)c2)nc1C1CCN(c2ncnc(N)c2C#N)CC1` [Compound 375, 4-Amino-6-{4-[1-(2-tert-butylamino-ethyl)-4-(4-fluoro-3-trifluoromethyl-phenyl)-1H-imidazol-2-yl]-piperidin-1-yl}-pyrimidine-5-carbonitrile], the IC50 at P70S6K (T412E mutant) is 1.3 nM; on His-AKT (Full Length), 1.9 nM.
For the compound `CNCCn1cc(-c2ccc(F)c(C(F)(F)F)c2)nc1C1CCN(c2ncnc(N)c2C(N)=O)CC1` [Compound 376, 4-Amino-6-{4-[4-(4-fluoro-3-trifluoromethyl-phenyl)-1-(2-methylamino-ethyl)-1H-imidazol-2-yl]-piperidin-1-yl}-pyrimidine-5-carboxylic acid amide], the IC50 at P70S6K (T412E mutant) was 3.4 nM; on His-AKT (Full Length), 33 nM.
The matching figures for `CC(C)(C)NCCn1cc(-c2ccc(F)c(C(F)(F)F)c2)nc1C1CCN(c2ncnc(N)c2C(N)=O)CC1` [Compound 377, 4-Amino-6-{4-[1-(2-tert-butylamino-ethyl)-4-(4-fluoro-3-trifluoromethyl-phenyl)-1H-imidazol-2-yl]-piperidin-1-yl}-pyrimidine-5-carboxylic acid amide]: 2 nM and 9.7 nM.
As to `Cc1cc(-c2cn(CCNCC3CC3)c(C3CCN(c4ncnc(N)c4C#N)CC3)n2)ccc1F` [Compound 378, 4-Amino-6-{4-[1-[2-(cyclopropylmethyl-amino)-ethyl]-4-(4-fluoro-3-methyl-phenyl)-1H-imidazol-2-yl]-piperidin-1-yl}-pyrimidine-5-carbonitrile], the IC50 was determined as 0.8 nM on P70S6K (T412E mutant) and 2.3 nM on His-AKT (Full Length).
Consider `Cc1cc(-c2cn(CCN(C)C(C)C)c(C3CCN(c4ncnc(N)c4C#N)CC3)n2)ccc1F` [Compound 379, 4-Amino-6-(4-{4-(4-fluoro-3-methyl-phenyl)-1-[2-(isopropyl-methyl-amino)-ethyl]-1H-imidazol-2-yl}-piperidin-1-yl)-pyrimidine-5-carbonitrile], for which the IC50 at P70S6K (T412E mutant) stood at 0.8 nM; on His-AKT (Full Length), 2.7 nM.
Consider `Cc1cc(-c2cn(CCNC(C)C)c(C3CCN(c4ncnc(N)c4C#N)CC3)n2)ccc1F` [Compound 380, 4-Amino-6-{4-[4-(4-fluoro-3-methyl-phenyl)-1-(2-isopropylamino-ethyl)-1H-imidazol-2-yl]-piperidin-1-yl}-pyrimidine-5-carbonitrile], for which the IC50 on P70S6K (T412E mutant) came out at 1.3 nM; at His-AKT (Full Length) it was 2.9 nM.
As for `N#Cc1c(N)ncnc1N1CCC(c2nc(-c3ccc(F)c(C(F)(F)F)c3)cn2CCNC2CCCC2)CC1` [Compound 381, 4-Amino-6-{4-[1-(2-cyclopentylamino-ethyl)-4-(4-fluoro-3-trifluoromethyl-phenyl)-1H-imidazol-2-yl]-piperidin-1-yl}-pyrimidine-5-carbonitrile], the values for the IC50 at P70S6K (T412E mutant) and at His-AKT (Full Length) were 1.1 nM and 0.8 nM, respectively.
On to `CCC(C)(C)NCCn1cc(-c2ccc(F)c(C(F)(F)F)c2)nc1C1CCN(c2ncnc(N)c2C#N)CC1` [Compound 382, 4-Amino-6-{4-[1-[2-(1,1-dimethyl-propylamino)-ethyl]-4-(4-fluoro-3-trifluoromethyl-phenyl)-1H-imidazol-2-yl]-piperidin-1-yl}-pyrimidine-5-carbonitrile], for which the IC50 on P70S6K (T412E mutant) is 1.7 nM; at His-AKT (Full Length), 4.3 nM.
For the compound `Cc1cc(-c2cn(CCNCC3CC3)c(C3CCN(c4ncnc(N)c4C(N)=O)CC3)n2)ccc1F` [Compound 383, 4-Amino-6-{4-[1-[2-(cyclopropylmethyl-amino)-ethyl]-4-(4-fluoro-3-methyl-phenyl)-1H-imidazol-2-yl]-piperidin-1-yl}-pyrimidine-5-carboxylic acid amide], the figures for the IC50 at P70S6K (T412E mutant) and at His-AKT (Full Length) were 3.3 nM and 8.4 nM, respectively.
For `Cc1cc(-c2cn(CCO)c(C3CCN(c4ncnc(N)c4C#N)CC3)n2)ccc1F` [Compound 384, 4-Amino-6-{4-[4-(4-fluoro-3-methyl-phenyl)-1-(2-hydroxy-ethyl)-1H-imidazol-2-yl]-piperidin-1-yl}-pyrimidine-5-carbonitrile], the IC50 on P70S6K (T412E mutant) turned out to be 1.8 nM; on His-AKT (Full Length), 440 nM.
As to `Cc1cc(-c2cn(CCN(C)C(C)C)c(C3CCN(c4ncnc(N)c4C(N)=O)CC3)n2)ccc1F` [Compound 385, 4-Amino-6-(4-{4-(4-fluoro-3-methyl-phenyl)-1-[2-(isopropyl-methyl-amino)-ethyl]-1H-imidazol-2-yl}-piperidin-1-yl)-pyrimidine-5-carboxylic acid amide], the concentration for half-maximal inhibition (IC50) at P70S6K (T412E mutant) was 6.2 nM; on His-AKT (Full Length) it was 42 nM.
